In patent publication US20240300975A1, “DIMETHYL-SUBSTITUTED THIAZOLOLACTAM COMPOUND AND USE THEREOF” (D3 Bio (Wuxi) Co., Ltd., priority 2021, published 2024):

Legend:
[1] = tested on: human melanoma A375 cells; assay: In vivo efficacy in mouse model of human melanoma A375; settings: for TGI: PO, BID, day 21, A375 xenograft nude mouse
Method: The anti-tumor effect of WX001 was evaluated using a subcutaneous xenograft tumor model of human melanoma A375 cells in nude mouse.
• Species: mouse • Strain: BALB/c nude mouse • Age: 6-8 weeks old • Gender: female • Body weight: 18-22 grams • Supplier: Vital River Laboratory Animal Technology Co., Ltd.
• 1) Assay cells and culture: Human melanomaA375 cells were cultured in monolayer in vitro. The culture conditions were DMEM medium plus 10% fetal bovine serum, and a 37° C. 5% CO2 incubator. Routine digestion with trypsin-EDTA was performed twice a week for passage. When the cell saturation was 80%-90% and the amount reached the requirement, the cells were harvested, counted, and inoculated; • 2) Tumor tissue inoculation and grouping: 0.1 mL (5×10^5) of A375 cells were subcutaneously inoculated into the right armpit of each mouse. When the average tumor volume reached 170 mm^3, the animals were randomly divided into 4 groups and the administration was started.
• 3) Daily observation of assay animals: The development of this assay protocol and any modifications were evaluated and approved by the Institutional Animal Care and Use Committee (IACUC). The use and welfare of assay animals were carried out in accordance with the regulations of the Association for Assessment and Accreditation of Laboratory Animal Care (AAALAC). Animals were monitored daily for health and death. Routine examinations included observation of tumor growth and the effects of drug treatment on the animals' daily behavior such as behavioral activities, food and water intake (visual inspection only), weight changes (weight measurements twice a week), appearance signs or other abnormalities. Animal deaths and side effects in each group were recorded based on the number of animals in each group.
• a) Vehicle group: 5% DMSO+95% (20% HP-β-CD). • b) Assay compound group: A quantitative amount of the assay compound was weighed in a formulation bottle. A corresponding volume of DMSO was added and then the mixture was vortexed to obtain a clear solution. A corresponding volume of 20% HP-β-CD was added and then the mixture was vortexed to obtain a homogeneous suspension.
• a) Tumor diameter was measured twice a week with a vernier caliper. The calculation formula of tumor volume was: TV=1/2×a×b^2, wherein a and b represent the long and short diameters of tumor, respectively; • b) The tumor-inhibitory efficacy of the compound was evaluated by TGI (%). TGI (%) reflected the inhibition rate of tumor growth. TGI (%) was calculated as follows: TGI (%)={[1−(average tumor volume at the end of administration of a treatment group−average tumor volume at the beginning of administration of this treatment group)]/(average tumor volume at the end of treatment in a solvent control group−average tumor volume at the beginning of treatment in the solvent control group)}×100%.

[2] = In vivo PK study in SD rats; settings: male SD rats
Method: Male SD rats were used as assay animals. After a single administration, the plasma concentration of the compound was measured and the pharmacokinetic behavior was evaluated.
Six healthy adult male SD rats were selected, wherein 3 rats were in an intravenous injection group and 3 rats were in an oral group. The vehicle in the intravenous injection group was 5% DMSO+95% (20% HP-β-CD). The compound to be assayed was mixed with an appropriate amount of vehicle for intravenous injection, vortexed and sonicated to prepare a clear solution of 0.2 mg/mL. The clear solution was filtered by a microporous membrane, and then ready for use. The vehicle in the oral group was 5% DMSO+95% (20% HP-β-CD). The compound to be assayed was mixed with the vehicle, vortexed and sonicated to prepare a solution of 1 mg/mL. SD rats were administered 1 mg/kg intravenously or 10 mg/kg orally, and then whole blood was collected for a certain period. Plasma was prepared. The drug concentration was analyzed by LC-MS/MS method, and the pharmacokinetic parameters were calculated by Phoenix WinNonlin software (Pharsight, USA).

[3] = tested on: mouse plasma albumin; assay: Plasma protein binding (PPB), mouse plasma; type: in vitro ADME; settings: ultracentrifugation, 37° C., 4 h
Method: (§1) The binding degree of the assay compound to human/mouse/rat/canine/monkey plasma albumin was studied.
(§2) • 1) Matrix preparation: on the day of the assay, plasma was thawed in cold water and centrifuged at 3220 rpm for 5 min to remove all clots. The pH of the resulting plasma was measured and adjusted to 7.4±0.1 using 1% phosphoric acid or 1N sodium hydroxide as needed. • 2) Dilution procedure for the assay compound: the assay compound was dissolved in dimethyl sulfoxide (DMSO) to prepare stock solutions with concentrations of 10 mM and 2 mM, respectively. A 40 μM working solution was prepared by diluting 2 μL of stock solution (2 mM) with 98 μL of DMSO. A 400 μM working solution of the control compound was prepared by diluting 10 μL of stock solution with 240 μL of DMSO. The working solution of the compound (5 μL) was mixed well with a blank matrix (995 μL) at a ratio of 1:200 to prepare a loading matrix.
(§3) • a) An equal volume of 30 μL of loading matrix (n=2) was transferred to a sample collection plate to prepare a time 0 (TO) sample for residue determination. The sample was immediately matched with the corresponding blank buffer to a final volume of 60 μL, and the volume ratio of plasma to buffer in each well was 1:1. […] The mixture was centrifuged at 4000 rpm for 20 min and 100 μL of supernatant from each sample was analyzed by LC-MS/MS.

[4] = tested on: rat plasma albumin; assay: Plasma protein binding (PPB), rat plasma; type: in vitro ADME; settings: ultracentrifugation, 37° C., 4 h
Method: as §1, §2, §3

With `Cc1cccc(CN2C(=O)c3nc(-c4nc(Nc5ccnn5C)ncc4C)sc3C2(C)C)n1` [WX001] the TGI ([1]; 5 mg/kg) was 36%, the TGI ([1]; 10 mg/kg) was 81% and the TGI ([1]; 20 mg/kg) was 104%. The tolerance ([1]; 5, 10, 20 mg/kg PO BID, during the administration) was “the tolerance is good”, the “body weight of animals” value ([1]; 5, 10, 20 mg/kg PO BID, to the 21st day) was “did not decrease significantly” and the “Oral DNAUC (AUCPO/Dose)” value ([2]; 10 mg/kg orally) was 302.12 nM · h/mpk. For the same compound, the clearance ([2]; rat, plasma, iv, 1 mg/kg intravenously) was 24.8 mL/min/kg, the Vd ([2]; rat, plasma, iv, 1 mg/kg intravenously, read-out: Vdss) was 1.06 L/kg and the bioavailability ([2]; rat, plasma, oral, 1 mg/kg intravenously / 10 mg/kg orally, read-out: F % (oral bioavailability)) was 21%. The half-life ([2]; rat, plasma, single administration) was 2.6 h, the Cmax ([2]; rat, po, 10 mg/kg orally, plasma) was 1010 nM and the “Plasma protein binding rate (unbound %)” value [3] was 7.2%. For the same compound, the “Plasma protein binding rate (unbound %)” value [4] was 3.8%.
